Reference: EP0559893A1, “XANTHINE DERIVATIVE” (priority 1990, dated 1992)

How the values were obtained:
[1] = test system: dd male mice; assay: Acute toxicity test; assay type: in vivo; settings: oral administration; mortality observed 7 days after the administration
From the text: Three dd male mice having a weight of 20 ± 1 g were used for one group. A test compound was orally administered to the mice.
The mortality was observed 7 days after the administration to determine the minimum lethal dose (MLD).

[2] = target: T1, Adenosine A₁ receptor (Cavia porcellus, UniProt P47745); assay: Adenosine A1 receptor binding test (3H-CHA binding); settings: for inhibition at 100 µM: read-out: A1 Receptor Inhibition (%) 10^-4 M; for inhibition at 10 µM: read-out: A1 Receptor Inhibition (%) 10^-5 M
T1 sequence (P47745 1-326): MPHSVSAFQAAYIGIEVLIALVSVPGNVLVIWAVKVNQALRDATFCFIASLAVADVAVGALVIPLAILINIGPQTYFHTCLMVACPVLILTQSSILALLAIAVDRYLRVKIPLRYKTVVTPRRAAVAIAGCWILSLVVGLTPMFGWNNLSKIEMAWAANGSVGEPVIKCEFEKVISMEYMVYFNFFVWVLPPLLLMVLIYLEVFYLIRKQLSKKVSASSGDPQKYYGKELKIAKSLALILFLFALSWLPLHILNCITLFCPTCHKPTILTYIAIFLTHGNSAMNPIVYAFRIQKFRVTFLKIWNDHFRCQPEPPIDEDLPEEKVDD

[3] = target: Adenosine A₂ receptor (Rattus norvegicus, UniProt P30543); assay: Adenosine A2 receptor binding test (3H-NECA binding); settings: for inhibition at 100 µM: read-out: A2 Receptor Inhibition (%) 10^-4 M; for inhibition at 10 µM: read-out: A2 Receptor Inhibition (%) 10^-5 M; for Ratio of Affinity with Receptor (A2 /A1 ): A2 (rat corpus striatum) versus A1 (guinea pig cerebrum)
[4] = test system: ddY male mice; assay: Mouse locomotor activity; assay type: in vivo; settings: po, enhancement of locomotor activity, measured for 3 hours after administration, read-out: Minimum Effective Dose (mg/kg, p.o.)
Procedure: Five ddY male mice having a weight of 19 to 21 g were used for one group. A test compound and theophylline were orally administered to the mice and then the mice were out in an acrylic test cage (length 26 × width 45 × height 25 cm). The amount of locomotor activity of each mouse was measured with Automex II (manufactured by Columbus) for 3 hours after the administration. Test of significance between the control group and the test compound-administered group was performed by the Student's t-test, and enhancement of the locomotor activity was judged. Furthermore, the minimum effective dose showing a significant difference was determined.

[5] = test system: calvaria; assay: Inhibitory effect on bone absorption (PTH-stimulated calcium release from cultured calvaria); assay type: cell-based, mouse; settings: test compound 10^-4 M, PTH 10^-8 M; for inhibition at 100 µM: Mus musculus, bone absorption, 96 hours, read-out: Inhibition Rate (%); for Ca Concentration (mg/dl) (n = 6, mean +/- S.E.M.): culture collected after 96 hours; for bone absorption by PTH (result in words): Duncan's test
Procedure: The calvaria was excised from a newborn dd mouse (5 to 6 days old) under sterile conditions. The calvaria was washed with a modified Dulbecco phosphate buffer physiological saline solution containing neither calcium nor magnesium (a product of Gibco Oriental), and divided into two parts along the center suture.
The culture medium was renewed 48 hours after the start of culturing. For determining the amount of calcium liberated from the bone by the action of PTH (bone absorption), the calcium content in the culture as collected after 96 hours of culturing was measured. The calcium concentration in the culture was measured with Calcium C Test Wako (manufactured by Wako Pure Chemical Industries, Ltd.). The bone absorption rate was calculated using the following equation. The test of significance of the inhibitory effect on bone absorption was performed by the Duncan's multi-weight comparative test. Inhibition rate (%) = [(CP - CD )/(CP - C₀)] × 100 [formula] CD indicates the total calcium concentration in the culture treated with both the test compound and PTH; CP indicates the total calcium concentration in the culture treated with only PTH (control); and C₀ indicates the total calcium concentration in the culture containing neither the test compound nor PTH.

Chain of Adenosine A₂ receptor (P30543 whole entry): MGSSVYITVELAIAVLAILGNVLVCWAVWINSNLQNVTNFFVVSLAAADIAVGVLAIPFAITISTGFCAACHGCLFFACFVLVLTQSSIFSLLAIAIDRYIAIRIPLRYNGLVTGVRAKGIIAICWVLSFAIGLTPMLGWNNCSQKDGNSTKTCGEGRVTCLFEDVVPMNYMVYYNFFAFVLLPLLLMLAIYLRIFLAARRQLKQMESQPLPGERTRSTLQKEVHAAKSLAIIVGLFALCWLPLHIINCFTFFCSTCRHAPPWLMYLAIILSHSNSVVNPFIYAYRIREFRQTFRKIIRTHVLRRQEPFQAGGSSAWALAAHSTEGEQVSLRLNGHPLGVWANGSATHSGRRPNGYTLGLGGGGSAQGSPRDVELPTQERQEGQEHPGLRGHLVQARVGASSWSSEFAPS

`CCCn1c(=O)c2nc(/C=C/c3cc(OC)c(OC)c(OC)c3)[nH]c2n(CCC)c1=O` [Compound 13, 1,3-Dipropyl-8-[(E)-3,4,5-trimethoxystyryl]xanthine] was tested, and the “MLD” value [1] was greater than 300 mg/kg.

For `CCCn1c(=O)c2c(nc(/C=C/c3cccs3)n2C)n(CCC)c1=O` [Compound 18, 1,3-Dipropyl-7-methyl-8-[2-(E)-(2-thienyl)vinyl]xanthine], the “MLD” value [1] was greater than 300 mg/kg.

With `CCCn1c(=O)c2[nH]c(/C=C/c3ccco3)nc2n(CCC)c1=O` [Compound 15, 1,3-Dipropyl-8-[2-(E)-(2-furyl)vinyl]xanthine] the “MLD” value [1] was greater than 300 mg/kg.

Work on `C=CCn1c(=O)c2c(nc(/C=C/c3cc(OC)c(OC)c(OC)c3)n2C)n(CC=C)c1=O` [Compound 24, 1,3-Diallyl-7-methyl-8-[(E)-3,4,5-trimethoxystyryl]xanthine] yielded a Ki [2] greater than 100 µM, an inhibition at 100 µM [2] of 31% and an inhibition at 10 µM [2] of 31%. For the same compound, the inhibition at 100 µM [3] was 96% and the inhibition at 10 µM [3] was 93%.

In the case of `CCCn1c(=O)c2c(nc(/C=C/c3ccc(Cl)cc3)n2C)n(CCC)c1=O` [Compound 6, 8-[(E)-4-Chlorostyryl]-7-methyl-1,3-dipropylxanthine], the “MLD” value [1] is reported as greater than 300 mg/kg.

`CCCn1c(=O)c2c(nc(/C=C/c3ccc(OC)cc3)n2C)n(CCC)c1=O` [Compound 10, 1,3-Dipropyl-8-[(E)-4-methoxystyryl]-7-methylxanthine] was tested, and the “MLD” value [1] was greater than 300 mg/kg, the Ki [2] was 2 µM and the inhibition at 100 µM [2] was 86%. The inhibition at 10 µM [2] was 65%, the “Ratio of Affinity with Receptor (A2 /A1 )” value (from here on “Ratio of Affinity”) [3] was 51 and the inhibition at 100 µM [3] was 95%. For the same compound, the inhibition at 10 µM [3] was 95%.

With `CCCn1c(=O)c2nc(/C=C/c3ccc(OC)c(OC)c3)[nH]c2n(CCC)c1=O` [Compound 11, 8-[(E)-3,4-Dimethoxystyryl]-1,3-dipropylxanthine] the “MLD” value [1] was greater than 300 mg/kg.

With `CCCn1c(=O)c2nc(/C=C/c3ccc(OC)cc3)[nH]c2n(CCC)c1=O` [Compound 9, 1,3-Dipropyl-8-[(E)-4-methoxystyryl]xanthine] the “MLD” value [1] was greater than 300 mg/kg.

For `CCCn1c(=O)c2c(nc(/C=C/c3ccc(Cl)c(Cl)c3)n2C)n(CCC)c1=O` [Compound 8, 8-[(E)-3,4-Dichlorostyryl]-1,3-dipropyl-7-methylxanthine], the “MLD” value [1] was greater than 300 mg/kg.

For `CCCn1c(=O)c2[nH]c(/C=C/c3cccs3)nc2n(CCC)c1=O` [Compound 17, 1,3-Dipropyl-8-[2-(E)-(2-thienyl)vinyl]xanthine], the “MLD” value [1] was greater than 300 mg/kg.

`CCCn1c(=O)c2nc(/C=C/c3ccc(Cl)c(Cl)c3)[nH]c2n(CCC)c1=O` [Compound 7, 8-[(E)-3,4-Dichlorostyryl]-1,3-dipropylxanthine] was tested, and the “MLD” value [1] was greater than 300 mg/kg.

In the case of `Cn1c(=O)c2[nH]cnc2n(C)c1=O` [Theophylline, theophylline, reference compound], the minimal effective dose [4] is reported as 20 mg/kg.

For `CCCn1c(=O)c2nc(/C(C)=C/c3ccccc3)[nH]c2n(CCC)c1=O` [Compound 3, 1,3-Dipropyl-8-[(E)-α-methylstyryl]xanthine], the “MLD” value [1] was greater than 300 mg/kg.

With `CCCn1c(=O)c2c(nc(/C(C)=C/c3ccccc3)n2C)n(CCC)c1=O` [Compound 4, 1,3-Dipropyl-7-methyl-8-[(E)-α-methylstyryl]xanthine] the “MLD” value [1] was greater than 300 mg/kg.

`COc1cc(/C=C/c2nc3c(c(=O)n(C)c(=O)n3C)n2C)cc(OC)c1OC` [Comparative Compound X, 1,3,7-trimethyl-8-[(E)-3,4,5-trimethoxystyryl]xanthine, reference compound] was tested, and the inhibition at 100 µM [5] was 55%, the “Ca Concentration (mg/dl) (n = 6, mean +/- S.E.M.)” value [5] was 10.32 ± 0.13 mg/dL and the “bone absorption by PTH (result in words)” value [5] was “significantly inhibited bone absorption by PTH”.

For `CCCn1c(=O)c2c(nc(/C=C/c3ccc(OC)c(OC)c3)n2C)n(CCC)c1=O` [Compound 12, 8-[(E)-3,4-Dimethoxystyryl]-1,3-dipropyl-7-methylxanthine], the “MLD” value [1] was greater than 300 mg/kg, the minimal effective dose [4] was 0.63 mg/kg and the Ki [2] was 3.1 µM. It also gave an inhibition at 100 µM [2] of 74%, an inhibition at 10 µM [2] of 61% and an inhibition at 100 µM [3] of 97%. It also gave an inhibition at 10 µM [3] of 96%.

`CCCn1c(=O)c2c(nc(/C=C/c3ccccc3)n2C)n(CCC)c1=O` [Compound 2, 1,3-Dipropyl-7-methyl-8-(E)-styrylxanthine] showed a minimal effective dose [4] of 1.25 mg/kg, a Ki [2] of 1.4 µM and an inhibition at 100 µM [2] of 82%. The inhibition at 10 µM [2] was 64%, the “Ratio of Affinity” value [3] was 52 and the inhibition at 100 µM [3] was 96%. It also gave an inhibition at 10 µM [3] of 95%.

In the case of `CCCn1c(=O)c2nc(/C=C/c3ccccc3)[nH]c2n(CCC)c1=O` [Compound 1, 1,3-Dipropyl-8-(E)-styrylxanthine], the “MLD” value [1] is reported as greater than 300 mg/kg.

In the case of `CCCn1c(=O)c2c(nc(/C=C/c3cc(OC)c(OC)c(OC)c3)n2C)n(CCC)c1=O` [Compound 14, 1,3-Dipropyl-7-methyl-8-[(E)-3,4,5-trimethoxystyryl]xanthine], the “MLD” value [1] is reported as greater than 300 mg/kg, the minimal effective dose [4] is reported as 10 mg/kg and the Ki [2] is reported as 65 µM. For the same compound, the inhibition at 100 µM [2] was 50%, the inhibition at 10 µM [2] was 30% and the inhibition at 100 µM [5] was 119%. For the same compound, the “bone absorption inhibition rate compared with Comparative Compound X (result in words)” value [5] was “significantly higher than that of Comparative Compound X”, the “Ca Concentration (mg/dl) (n = 6, mean +/- S.E.M.)” value [5] was 7.66 ± 0.08 ++ mg/dl and the “bone absorption by PTH (result in words)” value [5] was “significantly inhibited bone absorption by PTH”. The “Ratio of Affinity” value [3] was 4600, the inhibition at 100 µM [3] was 92% and the inhibition at 10 µM [3] was 94%.

For `CCCn1c(=O)c2nc(/C=C/c3ccc(Cl)cc3)[nH]c2n(CCC)c1=O` [Compound 5, 8-[(E)-4-Chlorostyryl]-1,3-dipropylxanthine], the “MLD” value [1] was greater than 300 mg/kg.
